The target in one data set is T1, cytosolic PLA2 (Homo sapiens, UniProt P47712).
T1 sequence (P47712 1-749): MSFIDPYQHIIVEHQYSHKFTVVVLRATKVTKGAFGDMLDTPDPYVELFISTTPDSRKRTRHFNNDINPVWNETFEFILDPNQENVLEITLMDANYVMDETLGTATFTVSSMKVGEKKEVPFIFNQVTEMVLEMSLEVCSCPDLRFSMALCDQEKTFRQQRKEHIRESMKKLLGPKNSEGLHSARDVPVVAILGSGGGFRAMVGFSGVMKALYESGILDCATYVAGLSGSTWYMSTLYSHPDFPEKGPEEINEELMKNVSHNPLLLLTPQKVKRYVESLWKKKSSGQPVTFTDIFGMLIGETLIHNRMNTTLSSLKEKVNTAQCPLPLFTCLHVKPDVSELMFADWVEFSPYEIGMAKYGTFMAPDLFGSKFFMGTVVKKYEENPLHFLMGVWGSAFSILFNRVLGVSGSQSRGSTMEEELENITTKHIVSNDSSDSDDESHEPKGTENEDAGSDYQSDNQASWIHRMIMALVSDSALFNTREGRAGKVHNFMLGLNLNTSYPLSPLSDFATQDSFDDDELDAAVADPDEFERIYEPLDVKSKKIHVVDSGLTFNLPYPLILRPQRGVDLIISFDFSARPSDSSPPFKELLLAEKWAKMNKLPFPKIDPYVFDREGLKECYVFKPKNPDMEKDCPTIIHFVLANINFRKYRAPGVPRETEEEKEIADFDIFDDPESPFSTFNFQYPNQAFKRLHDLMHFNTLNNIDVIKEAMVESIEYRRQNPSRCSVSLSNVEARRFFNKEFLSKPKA
The experiment in a line: Cytosolic PLA2 inhibition activity (sonicated liposomes with 1-palmitoyl-2-[14C]arachidonyl-sn-glycero-3-phosphocholine). The note with it: for IC50: 2 μM radiolabeled phosphatidylcholine liposomes, 1 mM CaCl2, pH 7.4. It counts as biochemical. On the procedure: Taking the above matter into consideration, the compounds of the present invention were evaluated for their effect on cytosolic PLA2 activity as described in published literature [Kramer, R. M., Robers, E. F., Manetta, J. and Putanam, J. E. et al., J. Biol. Chem. 268 (8): 5268-5272, 1991]. Briefly, PLA2 activity was assayed using sonicated liposomes containing 1-palmitoyl-2-[^14 C]arachidonyl-sn-glycero-3-phosphocholine and sn-1,2-dioleoyl glycerol at a molar ratio of 2:1. The assay mixture contained 1 mM CaCl2, 2 mM 2-mercaptoethanol, 150 mM NaCl, 50 mM Hepes, pH 7.4, and 0.1 mg/ml BSA. The substrate consisted of 2 μM radiolabeled phosphatidycholine liposomes containing 1 μM dioleoyl glycerol.
The amount of released fatty acids in the reaction as mentioned above was quantitated by a liquid scintillation counter. Separately, the same assay was performed except that the compound of the present invention was not added to serve as the enzyme control. The inhibitioory activity was expressed as a percent (%) of PLA2 activity in the enzyme control, and thereby 50% inhibition concentration was calculated.

Data set [1] in a line: hygroscopicity (printed with the elemental analysis). It counts as physicochemical. The note with it: amorphous form.

Broadly, the IC50 is the concentration at which inhibition is half-maximal. Read a high IC50 as lower potency. Consider `O=C(NCCN1CCCCC1)c1[nH]c(=O)oc1-c1ccccc1` [Compound 0030], for which, at cytosolic PLA2, the IC50 worked out at 103 µM. The hygroscopicity in data set [1] turned out to be 5 µg/min.

In general, inhibition refers to the relative decrease from the control value, in per cent. Read a high inhibition as strong suppression. For the compound `O=c1oc(-c2ccccc2)c(-c2ccccc2)n1Cc1cccc(F)c1` [Compound 0039, 3-(3-Fluorobenzyl)-4,5-diphenyl-oxazol-2-one], 6.2 µM corresponded to half-maximal inhibition at cytosolic PLA2 (IC50). At cytosolic PLA2 (compound at 2 μM, relative to enzyme control), this compound displayed an inhibition at 2 µM of 24%.

(Values after patent publication US5817826A, “Oxazolinone derivatives having cytosolic phospholipase A2 inhibitory activity” (Shionogi & Co., Ltd., priority 1993, dated 1998).)
